Among the data in ChEMBL document CHEMBL1138248, “Synthesis and in vitro antiprotozoal activity of bisbenzofuran cations” (J Med Chem, 2007) are IC50 values, retold here.

One test relates to Leishmania donovani. The test is described as follows: […] activity against Leishmania donovani (MHOM/SD/62/1S-CL2D) axenic amastigotes. The class given is functional, organism-based.
A further test deals with Plasmodium falciparum. The test is described as follows: microbe, parasite or virus in culture. The conditions noted are these: K1.
Another test has as its system L6. In words: Cytotoxicity against rat L6 cells.
In test [1] the test system is Trypanosoma brucei rhodesiense. In words: Antitrypanosomal activity against Trypanosoma brucei rhodesiense STIB900. In kind it is functional, organism-based.

Description for Plasmodium falciparum: Antimalarial activity against chloroquine-resistant Plasmodium falciparum K1

`N=C(N)c1ccc(OCCCCCOc2ccc(C(=N)N)cc2)cc1` [PENTAMIDINE] gave an IC50 in the test with Leishmania donovani of 1830 nM.

Regarding `C[C@@H]1CC[C@H]2[C@@H](C)C(=O)O[C@@H]3O[C@@]4(C)CC[C@@H]1[C@]32OO4` [ARTEMISININ], the IC50 with Plasmodium falciparum was 6 nM.

`COc1cc([C@@H]2c3cc4c(cc3[C@H](O)[C@H]3COC(=O)[C@H]23)OCO4)cc(OC)c1OC` [PODOFILOX] displayed a half-maximal inhibitory concentration (IC50) in the test with L6 of 10 nM.

In the case of `N=C(N)c1ccc2oc(CCc3cc4cc(C(=N)N)ccc4o3)cc2c1`, the 50% inhibitory concentration (IC50) in the test on Plasmodium falciparum stood at 3 nM; in test [1], 8 nM; with Leishmania donovani, 1060 nM; in the test with L6, 21500 nM.

In the test with L6, `CCN(CC)CCCC(C)Nc1ccnc2cc(Cl)ccc12` (stereo not drawn) [CHLOROQUINE] registered a half-inhibitory concentration (IC50) of 117000 nM.

In general, IC50 refers to the point on the concentration scale where inhibition reaches its midpoint. Higher therefore signals lower potency.
